Measured values taken from patent US7223793B2, “Phenolic acid derivatives and composition for preventing or treating blood lipid level-related diseases comprising the same” (Bionutrigen Co., Ltd., priority 2001, dated 2007).

Assays:
[1] = test system: New Zealand White rabbits; test: Abnormal fat-containing cells in liver of cholesterol-fed rabbits (Experimental Example 3); format: in vivo, rabbit; conditions: 1% cholesterol diet, 8 weeks; for Microscopic observation of liver cells (fatty liver): FIGS. 2a-2c; for Grade of proportion of abnormal fat-containing cells in the liver lobules around the central vein: grades 1+(0-25%), 2+(26-50%), 3+(51-75), 4+(76-100%), lovastatin 1 mg/kg or BN30028 0.05 wt %
Method: Thereafter, a piece of each organ was fixed in 10% neutral formalin for at least 24 hours. The fixed organ piece was washed sufficiently with tap water, dehydrated stepwise with 70%, 80%, 90% and 100% ethanol and, then, embedded in a paraffin by employing SHANDON, Histocentre 2, USA. The embedded organ piece was sectioned in a thickness of 4 μm with a microtome (LEICA, RM2045, Germany) and stained with H & E (hematoxylin and eosin). The stained organ specimen was made transparent with xylene, mounted with permount, and then observed under a microscope.
In order to quantitatively evaluate the effects of feeding a high cholesterol diet with test substances on liver tissues, the liver specimens prepared in step 3 of the Experimental Example 3 were observed under a microscope with referring to the procedure described by Fogt F. et al. (Fogt F. and Nanji A., Toxicology and Applied Pharmacology, 136, 87-93, 1996) and the procedure described by Keegan et al. (Keegan A., et al., Journal of Hepatology 23: 591-600, 1995). The specimens were classified into for grades: 1+(0-25%), 2+(26-50%), 3+(51-75) and 4+(76-100%) according to the proportion of abnormal fat-containing cells in the liver lobules around the central vein. The significant differences between the test groups were tested by student t-test using Microsoft excel (version 7.0) program

[2] = test system: ACAT; test: ACAT activity in liver microsomes of treated rabbits (Experimental Example 4); format: in vivo, rabbit; conditions: liver microsomes of rabbits fed 8 weeks; for ACAT activity: lovastatin 1 mg/kg or BN30028 0.05 wt %, average ± standard deviation; for ACAT activity inhibition: relative to control group
Method: The rabbits raised as described in step 1 of the Experimental Example 2 were sacrificed by decapitation and the livers were removed from the rabbits. 1 g of the liver tissue taken from each rabbit was homogenized in 5 ml of homogenization medium (0.1 M KH2PO4, pH 7.4, 0.1 mM EDTA and 10 mM β-mercaptoethanol). The homogenate was centrifuged at 3,000×g for 10 minutes at 4° C. and the supernatant thus obtained was centrifuged at 15,000×g for 15 minutes at 4° C. to obtain a supernatant. The resulting supernatant was put into an ultracentrifuge tube (Beckman) and centrifuged at 100,000×g for 1 hour at 4° C. to obtain microsomal pellets, which were then suspended in 3 ml of the homogenization medium and centrifuged at 100,000×g for 1 hour at 4° C. The pellets thus obtained were suspended in 1 ml of the homogenization medium. The protein concentration of the resulting suspension was determined by Lowry's method and then adjusted to the range of 4 to 8 mg/ml. The resulting suspension was stored in a deep freezer (Biofreezer, Forma Scientific Inc.).
6.67 μl, of 1 mg/ml cholesterol solution in acetone was mixed with 6 μl of 10% Triton WR-1339 (Sigma Co.) in acetone. Acetone was removed from the mixture by evaporation under a nitrogen flow. To the resulting mixture, distilled water was added to adjust the concentration of cholesterol to 30 mg/ml.
To 10 μl of the resulting aqueous cholesterol solution, 10 μl of 1 M KH2PO4 (pH 7.4), 5 μl of 0.6 mM bovine serum albumin (BSA), 10 μl of the microsome solution obtained in Step 1 and 55 μl of distilled water (total 90 μl) were added. The mixture was pre-incubated in a water bath at 37° C. for 30 minutes.
10 μl of (1-^14C) oleyl-CoA solution (0.05 μCi, final concentration: 10 μM) was added to the pre-incubated mixture and the resulting mixture was incubated in a water bath at 37° C. for 30 minutes. 500 μl of isopropanol:heptane mixture (4:1 (v/v)), 300 μl of heptane and 200 μl of 0.1 M KH2PO4 (pH 7.4). were added to the mixture. The mixture was mixed vigorously using a vortex mixer and then allowed to stand at room temperature for 2 minutes.
200 μl of the resulting supernatant was put in a scintillation bottle and 4 ml of scintillation fluid (Lumac) was added thereto. The mixture was assayed for radioactivity with 1450 Microbeta liquid scintillation counter (Wallacoy, Finland). ACAT activity was calculated as picomoles of cholesteryl oleate synthesized per minute per mg protein (pmoles/min/mg protein). All the data are expressed by average±standard deviation(p<0.05).

[3] = test system: Sprague-Dawley rats; test: Effect on hyperlipemia in rats fed high-cholesterol diet (Experimental Example 6); format: in vivo, rat; conditions: rats on 1% cholesterol diet, 6 weeks; for Atherogenic index (AI): (total cholesterol − HDL cholesterol)/HDL cholesterol; for HDL-cholesterol / Neutral fat / Total cholesterol: 0.02% lovastatin, 0.039% BN30063, 0.040% BN30064, 0.041% BN30067 in diet; for HDL-cholesterol / Neutral fat / Total cholesterol / HDL-cholesterol/total cholesterol: average
Excerpt: 50 of 4-week-old male white Sprague-Dawley rats (Bio Genomics Inc., Korea), each weighing about 90 to 110 g, were divided into five groups by a randomized block design. The rats of the five groups were fed with five different high-cholesterol diets, i.e., AIN-76 laboratory animal diets (TEKLAD premier Co., Madison, Wis., U.S.A.) containing 1% cholesterol (Control group), 1% cholesterol plus 0.02% lovastatin (Choongwae Pharma. Corp., Korea), 1% cholesterol plus 0.039% BN30063, 1% cholesterol plus 0.040% BN30064, and 1% cholesterol plus 0.041% BN30067, respectively, as shown in Table VII.
The animals were allowed free access to the specified diets and water for 6 weeks and the ingestion amounts were recorded daily. The rats were weighed every 7 days, and then the record was analyzed.
Blood samples were taken from vena hypogastrica of the rats of the five dietary groups raised for six weeks in Step 1. The blood was allowed to stand for 2 hours and centrifuged at 3,000 rpm for 15 minutes and the supernatant containing serum was separated and stored in a deep freezer before use. The total cholesterol level was measured using a diagnosis kit purchased from Sigma, Cat. No.: C0534, applying the method of Allain et al. (Allain et al., Clin. Chem., 20, 470-475 (1974)). The HDL fraction was separated using a kit purchased from Sigma, Cat. No.: 352-1 applying the heparin-manganese precipitation method (Waenic R. G. and Albers J. J., J Lipid Res., 19, 65-76 (1978)) and the HDL-cholesterol level was measured using a kit purchased from Sigma, Cat. No.: C9908. The neutral fat level was measured using a kit purchased from Sigma, Cat. No.: 336-10) applying the lipase-glycerol phosphate oxidase method (McGowan, M. W. et al., Clin. Chem., 29, 538-542(1983)).

| SMILES | Microscopic observation of liver cells (fatty liver) [1] | Proportion of fat-modified cells compared to control ([1]; p<0.05) | Grade of proportion of abnormal fat-containing cells in the liver lobules around the central vein [1] | ACAT activity [2] [pmol/minute/mg protein] | ACAT activity inhibition [2] [%] | Atherogenic index (AI) [3] | Increase of HDL-cholesterol to total cholesterol as compared to the control group [3] [%] | Reduction of atherogenic index as compared to the control group [3] [%] | Reduction of neutral fat level as compared to the control group [3] [%] | Reduction of total plasma cholesterol level as compared to the control group [3] [%] | HDL-cholesterol [3] [mg/dL] | Neutral fat [3] [mg/dL] | Total cholesterol [3] [mg/dL] | HDL-cholesterol/total cholesterol [3] [%] |
| --- | --- | --- | --- | --- | --- | --- | --- | --- | --- | --- | --- | --- | --- | --- |
| COC(=O)C(Cc1ccccc1)NC(=O)CCc1ccc(O)c(O)c1 (stereo not drawn) [BN30028, 2-[3-(3,4-dihydroxyphenyl)propionylamino]-3-phenyl propionic acid methyl ester] | almost all liver cells of the rabbits administered with BN30028 are of a normal shape | significantly reduced | 3.57 ± 0.35 | 93.9 ± 21.5 | 26.2 |  |  |  |  |  |  |  |  |  |
| COC(=O)C(CO)NC(=O)CCc1ccc(O)c(O)c1 (stereo not drawn) [BN30063, 2-[3-(3,4-dihydroxyphenyl)propionylamino]-3-hydroxy propionic acid methyl ester] |  |  |  |  |  | 1.39 | 78.28 | 57.75 | 49.41 | 29.8 | 28.97 | 52.31 | 68.06 | 43.25 |
| CC(C)CC(NC(=O)CCc1ccc(O)c(O)c1)C(=O)O (stereo not drawn) [BN30064, 2-[3-(3,4-dihydroxyphenyl)propionylamino]-4-methyl pentanoic acid] |  |  |  |  |  | 1.61 | 68.10 | 51.06 | 29.35 | 21.92 | 28.49 | 73.07 | 75.71 | 40.78 |
| O=C(O)CC(NC(=O)CCc1ccc(O)c(O)c1)C(=O)O (stereo not drawn) [BN30067, 2-[3-(3,4-dihydroxyphenyl)propionylamino]-succinic acid] |  |  |  |  |  | 1.96 | 42.70 | 40.43 | 63.87 | 27.82 | 23.81 | 37.37 | 69.99 | 34.62 |
| CC[C@H](C)C(=O)O[C@H]1C[C@@H](C)C=C2C=C[C@H](C)[C@H](CC[C@@H]3C[C@@H](O)CC(=O)O3)[C@H]21 [Lovastatin, reference compound] | many cells containing excessive fat were observed around the central vein |  | 3.97 ± 0.15 | 96.2 ± 21.3 | 23.8 | 2.58 | 20 | 21.58 | 18.92 | 10 | 24.83 | 83.85 | 86.51 | 29.13 |
